In PubChem BioAssay (NCI):
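All cell lines were grown in 96-well plates and treated with compound for 48 hours. TGI: concentration producing complete growth inhibition.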

Legend:
Test in all cases: DTP human tumour cell line panel, 48 h
[1] = system: A549 NSCLC
[2] = system: ACHN renal
[3] = system: HCT-116 colon
[4] = system: HL-60(TB) leukemia
[5] = system: IGROV1 ovarian
[6] = system: K-562 leukemia
[7] = system: MALME-3M melanoma
[8] = system: MDA-MB-435
[9] = system: MDA-N
[10] = system: MOLT-4 leukemia
[11] = system: NCI-H226 lung
[12] = system: NCI-H522 lung
[13] = system: OVCAR-3 ovarian
[14] = system: OVCAR-4 ovarian
[15] = system: OVCAR-5 ovarian
[16] = system: OVCAR-8 ovarian
[17] = system: SF-295 CNS
[18] = system: SK-OV-3 ovarian
[19] = system: U251 CNS
[20] = system: UO-31 renal

SMILES | TGI [1] [µM] | TGI [2] [µM] | TGI [3] [µM] | TGI [4] [µM] | TGI [5] [µM] | TGI [6] [µM] | TGI [7] [µM] | TGI [8] [µM] | TGI [9] [µM] | TGI [10] [µM] | TGI [11] [µM] | TGI [12] [µM] | TGI [13] [µM] | TGI [14] [µM] | TGI [15] [µM] | TGI [16] [µM] | TGI [17] [µM] | TGI [18] [µM] | TGI [19] [µM] | TGI [20] [µM]
CN1/C(=C\N=O)C(C)(C)N(O)C1(C)C | > 100 | > 100 | > 100 | > 100 | > 100 | > 100 | > 100 | > 100 | > 100 | > 100 | > 100 | > 100 | > 100 | > 100 | > 100 | > 100 | > 100 | > 100 | > 100 | > 100
C1=C2C3=[N+](CCCC3)CC2Cc2sccc21 (configuration not stated) | > 100 | > 100 | > 100 | > 100 | > 100 | > 100 | > 100 | > 100 | > 100 | > 100 | > 100 | > 100 | > 100 | > 100 | > 100 | > 100 | > 100 | > 100 | > 100 | > 100
C[C@@H](c1ccccc1)N1C[C@@H](c2ccc3c(c2)OCO3)[C@@H]2C(=O)CCC[C@@H]21 | > 100 | 67.2 | > 100 | > 100 | > 100 | > 100 | 87.5 | > 100 | > 100 | 77.6 | > 100 | > 100 | – | > 100 | > 100 | > 100 | > 100 | > 100 | > 100 | > 100
O=C(O)CN1CCN2CCCCCCCCN(CC1)CCN(CC(=O)O)CC2 | > 100 | > 100 | > 100 | 30.7 | > 100 | > 100 | > 100 | > 100 | > 100 | > 100 | > 100 | > 100 | > 100 | > 100 | > 100 | > 100 | > 100 | > 100 | > 100 | > 100
COc1ccc(N[C@H](CS(=O)c2ccc(C)cc2)C(F)(F)F)cc1 (some centres not stated) | > 100 | > 100 | > 100 | > 100 | > 100 | > 100 | > 100 | > 100 | > 100 | > 100 | > 100 | > 100 | > 100 | > 100 | > 100 | > 100 | > 100 | > 100 | > 100 | > 100
Fc1ccccc1-c1cc(=S)c2cc3c(cc2[nH]1)OCO3 | > 100 | > 100 | > 100 | – | > 100 | > 100 | > 100 | > 23.6 | > 26.7 | > 25.1 | > 100 | 57 | > 100 | > 100 | > 100 | > 100 | > 100 | > 100 | > 100 | > 100
CCOP(=O)(OCC)/C(=C\n1ccc(=O)[nH]c1=S)C(=O)OC | > 100 | > 100 | > 100 | > 100 | > 100 | > 100 | > 100 | > 100 | > 100 | > 100 | > 100 | > 100 | – | > 100 | > 100 | > 100 | > 100 | > 100 | > 100 | > 100
C[C@H](CCC(=O)O)[C@H]1CC[C@H]2[C@@H]3[C@H](O)[C@H](O)[C@@H]4C[C@H](O)CC[C@]4(C)[C@H]3CC[C@]12C | > 100 | > 100 | > 100 | > 100 | > 100 | > 100 | > 100 | > 100 | > 100 | > 100 | > 100 | > 100 | – | > 100 | > 100 | > 100 | – | – | > 100 | > 100
CCOC(=O)C(=CNc1ccc(S(N)(=O)=O)cc1)C(=O)OCC | > 100 | > 100 | > 100 | > 100 | > 100 | > 100 | > 100 | > 100 | > 100 | > 100 | > 100 | > 100 | > 100 | > 100 | > 100 | > 100 | > 100 | > 100 | > 100 | > 100
COc1ccc2nc(N/N=C/c3ccc(C)s3)cc(C)c2c1 | > 100 | 37.8 | 35.9 | > 100 | 90 | 49 | 58.7 | 60.6 | 38.2 | 35.5 | 41 | > 100 | 38.1 | 48.7 | 32.6 | 55.7 | 37.8 | 45 | 72.9 | 36.5
C/C(=N\N)C(CN1CCOCC1)C(c1ccccc1)c1c(O)c2ccccc2oc1=O (configuration not stated) | > 100 | > 100 | > 100 | > 100 | > 100 | > 100 | > 100 | > 100 | > 100 | > 80.8 | > 100 | > 100 | > 100 | > 100 | > 100 | > 100 | > 100 | > 100 | > 100 | > 100
O=C1/C(=C/c2ccc([N+](=O)[O-])cc2)CCCc2ccccc21 | > 100 | > 100 | > 100 | > 100 | > 100 | > 100 | > 100 | > 100 | > 100 | > 100 | > 100 | > 100 | > 100 | > 100 | > 100 | > 100 | > 100 | > 100 | > 100 | > 100
O=C1C2CCCC2N1Cc1ccccc1 (configuration not stated) | – | > 100 | > 100 | > 100 | > 100 | > 100 | – | > 100 | > 100 | > 100 | > 100 | > 100 | > 100 | > 100 | > 100 | > 100 | > 100 | > 100 | – | 28.5
C=CC(=C)CCC(Br)C(C)(C)Br (configuration not stated) | > 100 | > 100 | > 100 | 55.1 | > 100 | > 100 | > 100 | > 100 | > 100 | 45.7 | > 100 | 30.6 | > 100 | > 100 | > 100 | > 100 | > 100 | > 100 | > 100 | > 100
C/C(CC(O)(C(F)(F)F)C(F)(F)F)=N\NC(N)=S | > 10 | > 10 | > 10 | > 10 | > 10 | > 10 | > 10 | > 10 | > 10 | > 10 | > 10 | > 10 | > 10 | > 10 | – | > 10 | > 10 | > 10 | > 10 | > 10
CC1(C)CC[C@]2(C)[C@@H](O)C[C@]3(C)C(=CC[C@@H]4[C@@]5(C)CC[C@H](O)C(C)(C)[C@@H]5CC[C@]43C)[C@@H]2C1 | > 100 | > 100 | > 100 | > 100 | > 100 | > 100 | 86.9 | > 100 | > 100 | > 100 | > 100 | > 100 | > 100 | > 100 | > 100 | 74.3 | > 100 | 40.7 | > 100 | > 100
Cc1nc(-c2cccnc2)sc1C(=O)CC(=O)C(=O)Nc1cccc(NC(=O)C(=O)CC(=O)c2sc(-c3cccnc3)nc2C)n1 | > 100 | > 100 | > 100 | > 100 | > 100 | > 100 | > 100 | > 100 | > 100 | > 100 | > 100 | > 100 | > 100 | > 100 | > 100 | > 100 | > 100 | > 100 | > 100 | > 100
Nc1ccc2nc3n(c2c1)C(c1c(F)cccc1F)SC3 (configuration not stated) | > 100 | > 100 | > 100 | > 100 | > 100 | > 100 | > 100 | > 100 | > 100 | > 100 | – | > 100 | > 100 | > 100 | > 100 | > 100 | > 100 | > 100 | > 100 | > 100
Cc1c(C)c(S(=O)(=O)N(CCCN)OCCCN)c(C)c2c1OC(C)(C)CC2 | 29.6 | 29.6 | 30 | – | 20.3 | 29.6 | 27.8 | 29.6 | 29.2 | 14.9 | 28 | 28.4 | 29.5 | 23.6 | 25.8 | 29.8 | 30.4 | 29.8 | 24.1 | 31.5
NC1=Nc2ccccc2Sc2nccn21 | > 100 | 91 | > 100 | 45 | > 100 | 50 | 34.6 | 59 | 59.7 | 49.4 | 48.1 | 44.3 | 66 | > 100 | > 100 | > 100 | 43.7 | > 100 | 96.2 | 63.9
N#CC12CC(C=O)=C(N)C1(C#N)CC(C=O)=C2N (configuration not stated) | > 100 | > 100 | > 100 | > 100 | > 100 | > 100 | > 100 | > 100 | > 100 | > 100 | > 100 | > 100 | – | – | > 100 | > 100 | > 100 | > 100 | > 100 | > 100
Cc1ccc(N2C=Nn3c(nc4sc5c(c4c3=O)CCCC5)C2)cc1 | > 100 | > 100 | > 100 | – | > 100 | > 100 | > 100 | > 100 | > 100 | > 100 | > 100 | > 100 | > 100 | > 100 | > 100 | > 100 | > 100 | > 100 | > 100 | > 100
O=P(O)(O)c1ccc2c(c1)OCCOCCOCCOCCO2 | > 100 | > 100 | > 100 | > 100 | > 100 | > 100 | > 100 | > 100 | > 100 | > 100 | > 100 | > 100 | – | – | – | > 100 | > 100 | > 100 | – | > 100
C[C@H](CCC(=O)O)[C@H]1CC[C@H]2[C@@H]3[C@@H](O)C[C@@H]4C[C@H](O)CC[C@]4(C)[C@H]3C[C@H](O)[C@]12C | > 100 | > 100 | > 100 | > 100 | > 100 | > 100 | > 100 | > 100 | > 100 | > 100 | > 100 | > 100 | – | > 100 | > 100 | > 100 | – | – | > 100 | –
